In paper PMC9696710 (International Journal of Molecular Sciences, 2022):

Columns and labels:
Assay in all cases: stopped-flow CO2 hydrase assay
Type in all cases: biochemical
hCA II = target: T1, hCA II (Homo sapiens, UniProt P00918); conditions: read-out: KI (nM) ^a / hCA II (α-CA)
T1 construct: gene CA2; recombinant, obtained in-house; cytosolic alpha-CA
Text: stopped-flow CO2 hydrase assay on hCA II

hCA VII = target: T2, hCA VII (Homo sapiens, UniProt P43166); conditions: read-out: KI (nM) ^a / hCA VII (α-CA)
T2 construct: gene CA7; recombinant, obtained in-house; cytosolic alpha-CA
Text: stopped-flow CO2 hydrase assay on hCA VII

hCA I = target: T3, hCA I (Homo sapiens, UniProt P00915); conditions: read-out: KI (nM) ^a / hCA I (α-CA)
T3 construct: gene CA1; recombinant, obtained in-house; cytosolic alpha-CA
Text: stopped-flow CO2 hydrase assay on hCA I

MgCA = target: T4, MgCA (Malassezia globosa, UniProt A8Q1N3); conditions: […] TRIS pH […] Na2SO4, […] h preincubation at room temperature; read-out: KI (nM) ^a / MgCA (β-CA)
T4 construct: gene MGL_1814; recombinant, obtained in-house; beta-CA
T4 sequence (A8Q1N3 1-241): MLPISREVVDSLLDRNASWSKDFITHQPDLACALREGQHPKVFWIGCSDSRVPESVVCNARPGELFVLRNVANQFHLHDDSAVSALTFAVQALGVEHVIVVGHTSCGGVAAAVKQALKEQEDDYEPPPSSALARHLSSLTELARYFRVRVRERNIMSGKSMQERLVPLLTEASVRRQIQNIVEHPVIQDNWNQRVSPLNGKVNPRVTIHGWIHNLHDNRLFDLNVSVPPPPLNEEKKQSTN

CgNce103 = target: T5, CgNce103 (Nakaseomyces glabratus, UniProt Q6FTL6); conditions: read-out: KI (nM) ^a / CgNce103 (β-CA)
T5 construct: gene NCE103; recombinant, obtained in-house; beta-CA
T5 sequence (Q6FTL6 1-219): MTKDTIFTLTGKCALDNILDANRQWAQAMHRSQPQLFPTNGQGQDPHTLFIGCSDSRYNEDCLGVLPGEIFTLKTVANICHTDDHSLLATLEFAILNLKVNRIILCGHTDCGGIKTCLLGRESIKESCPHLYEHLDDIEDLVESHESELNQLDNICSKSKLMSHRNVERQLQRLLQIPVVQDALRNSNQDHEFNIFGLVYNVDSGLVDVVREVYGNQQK

T2 sequence (P43166 whole entry): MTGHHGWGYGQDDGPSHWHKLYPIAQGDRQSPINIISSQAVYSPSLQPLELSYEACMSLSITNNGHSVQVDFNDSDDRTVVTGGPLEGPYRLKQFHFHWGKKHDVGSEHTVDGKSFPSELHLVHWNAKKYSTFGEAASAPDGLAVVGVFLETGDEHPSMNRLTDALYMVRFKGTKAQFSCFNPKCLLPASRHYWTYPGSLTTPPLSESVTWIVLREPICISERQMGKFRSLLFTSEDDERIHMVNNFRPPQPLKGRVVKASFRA
T3 sequence (P00915 2-261): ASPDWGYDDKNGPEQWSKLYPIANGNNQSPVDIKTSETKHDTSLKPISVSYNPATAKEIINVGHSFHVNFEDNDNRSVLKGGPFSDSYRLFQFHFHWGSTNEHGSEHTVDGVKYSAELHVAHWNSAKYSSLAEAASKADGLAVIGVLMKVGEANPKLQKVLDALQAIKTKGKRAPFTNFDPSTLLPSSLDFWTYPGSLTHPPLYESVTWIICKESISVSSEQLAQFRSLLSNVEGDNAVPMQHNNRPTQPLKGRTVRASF

Q: For `N#Cc1ccc(CN2C(=O)CN(c3ccc(S(N)(=O)=O)cc3)C2=O)cc1` [8g, 4-(3-(4-Cyanobenzyl)-2,4-dioxoimidazolidin-1-yl)benzenesulfonamide], which Ki (hCA II) is on record?
A: 7.2 nM

Q: And the Ki (hCA VII)?
A: 12 nM

Q: And the Ki (hCA I)?
A: 570 nM

Q: And the Ki (MgCA)?
A: > 100000 nM

Q: And the Ki (CgNce103)?
A: 38.4 nM

Q: Which results are given for `NS(=O)(=O)c1ccc(N2CC(=O)N(Cc3ccc(Cl)c(Cl)c3)C2=O)cc1` [8m, 4-(3-(3,4-Dichlorobenzyl)-2,4-dioxoimidazolidin-1-yl)benzenesulfonamide]?
A: Ki (hCA II): 85.6 nM; Ki (hCA VII): 133 nM; Ki (hCA I): 688 nM; Ki (MgCA): > 100000 nM; Ki (CgNce103): 67.9 nM

Q: `CCCCCCCN1C(=O)CN(c2ccc(S(N)(=O)=O)cc2)C1=O` [8b, 4-(3-Heptyl-2,4-dioxoimidazolidin-1-yl)benzenesulfonamide] was tested. Which Ki (hCA II) did it give?
A: 56.4 nM

Q: What about the Ki (hCA VII) of the same compound?
A: 187 nM

Q: And the Ki (hCA I)?
A: 747 nM

Q: What about the Ki (MgCA) of the same compound?
A: 95700 nM

Q: And the Ki (CgNce103)?
A: 83.7 nM

Q: Which Ki (hCA II) does the source give for `NS(=O)(=O)c1ccc(N2CC(=O)N(Cc3ccc(C(F)(F)F)cc3)C2=O)cc1` [8i, 4-(2,4-Dioxo-3-(4-(trifluoromethyl)benzyl)imidazolidin-1-yl)benzenesulfonamide] here?
A: 43.3 nM

Q: What about the Ki (hCA VII) of the same compound?
A: 14.3 nM

Q: And the Ki (hCA I)?
A: 601 nM

Q: What about the Ki (MgCA) of the same compound?
A: 59600 nM

Q: What about the Ki (CgNce103) of the same compound?
A: 13.1 nM

Q: `Cc1ccc(CN2C(=O)CN(c3ccc(S(N)(=O)=O)cc3)C2=O)cc1` [8e, 4-(3-(4-Methylbenzyl)-2,4-dioxoimidazolidin-1-yl)benzenesulfonamide] was tested. Which Ki (hCA II) did it give?
A: 32.7 nM

Q: And the Ki (hCA VII)?
A: 3 nM

Q: What about the Ki (hCA I) of the same compound?
A: 2930 nM

Q: And the Ki (MgCA)?
A: 38900 nM

Q: What about the Ki (CgNce103) of the same compound?
A: 18.3 nM

Q: For `Cc1cccc(CN2C(=O)CN(c3ccc(S(N)(=O)=O)cc3)C2=O)c1` [8k, 4-(3-(3-Methylbenzyl)-2,4-dioxoimidazolidin-1-yl)benzenesulfonamide], which Ki (hCA II) is on record?
A: 58.3 nM

Q: What about the Ki (hCA VII) of the same compound?
A: 18.8 nM

Q: What about the Ki (hCA I) of the same compound?
A: 1080 nM

Q: What about the Ki (MgCA) of the same compound?
A: > 100000 nM

Q: What about the Ki (CgNce103) of the same compound?
A: 8.4 nM

Q: With `NS(=O)(=O)c1ccc(N2CC(=O)N(Cc3c(F)c(F)c(F)c(F)c3F)C2=O)cc1` [8n, 4-(2,4-Dioxo-3-((perfluorophenyl)methyl)imidazolidin-1-yl)benzenesulfonamide] as the compound, how does the Ki (hCA II) read?
A: 91.2 nM

Q: And the Ki (hCA VII)?
A: 16.9 nM

Q: What about the Ki (hCA I) of the same compound?
A: 415 nM

Q: And the Ki (MgCA)?
A: 34900 nM

Q: What about the Ki (CgNce103) of the same compound?
A: 35.7 nM

Q: Which results are given for `NS(=O)(=O)c1ccc(N2CC(=O)N(Cc3ccc([N+](=O)[O-])cc3)C2=O)cc1` [8h, 4-(3-(4-Nitrobenzyl)-2,4-dioxoimidazolidin-1-yl)benzenesulfonamide]?
A: Ki (hCA II): 6.1 nM; Ki (hCA VII): 30.3 nM; Ki (hCA I): 657 nM; Ki (MgCA): > 100000 nM; Ki (CgNce103): 6.6 nM

Q: Which results are given for `NS(=O)(=O)c1ccc(N2CC(=O)N(Cc3ccc(Cl)cc3)C2=O)cc1` [8f, 4-(3-(4-Chlorobenzyl)-2,4-dioxoimidazolidin-1-yl)benzenesulfonamide]?
A: Ki (hCA II): 62.2 nM; Ki (hCA VII): 15.3 nM; Ki (hCA I): 8790 nM; Ki (MgCA): 41500 nM; Ki (CgNce103): 44.9 nM

Q: With `NS(=O)(=O)c1ccc(N2CC(=O)N(Cc3ccccc3F)C2=O)cc1` [8l, 4-(3-(2-Fluorobenzyl)-2,4-dioxoimidazolidin-1-yl)benzenesulfonamide] as the compound, how does the Ki (hCA II) read?
A: 1.2 nM

Q: And the Ki (hCA VII)?
A: 12.7 nM

Q: What about the Ki (hCA I) of the same compound?
A: 447 nM

Q: What about the Ki (MgCA) of the same compound?
A: 81100 nM

Q: What about the Ki (CgNce103) of the same compound?
A: 48.8 nM

Q: `NS(=O)(=O)c1ccc(N2CC(=O)NC2=O)cc1` [compound 6, 4-(2,4-Dioxoimidazolidin-1-yl)benzenesulfonamide] was tested. Which Ki (hCA II) did it give?
A: 18.1 nM

Q: And the Ki (hCA VII)?
A: 61.4 nM

Q: And the Ki (hCA I)?
A: 504 nM

Q: What about the Ki (MgCA) of the same compound?
A: 37200 nM

Q: What about the Ki (CgNce103) of the same compound?
A: 29.5 nM

Q: For `CCN1C(=O)CN(c2ccc(S(N)(=O)=O)cc2)C1=O` [8a, 4-(3-Ethyl-2,4-dioxoimidazolidin-1-yl)benzenesulfonamide], which Ki (hCA II) is on record?
A: 25.8 nM

Q: And the Ki (hCA VII)?
A: 30.8 nM

Q: What about the Ki (hCA I) of the same compound?
A: 262 nM

Q: What about the Ki (MgCA) of the same compound?
A: 68100 nM

Q: What about the Ki (CgNce103) of the same compound?
A: 46 nM

Q: How did the Ki (hCA II) turn out when `NS(=O)(=O)c1ccc(N2CC(=O)N(Cc3ccccc3)C2=O)cc1` [8d, 4-(3-Benzyl-2,4-dioxoimidazolidin-1-yl)benzenesulfonamide] was run?
A: 8.7 nM

Q: What about the Ki (hCA VII) of the same compound?
A: 5.3 nM

Q: And the Ki (hCA I)?
A: 837 nM

Q: What about the Ki (MgCA) of the same compound?
A: 64600 nM

Q: What about the Ki (CgNce103) of the same compound?
A: 20.9 nM

Q: With `C=CCN1C(=O)CN(c2ccc(S(N)(=O)=O)cc2)C1=O` [8c, 4-(3-Allyl-2,4-dioxoimidazolidin-1-yl)benzenesulfonamide] as the compound, how does the Ki (hCA II) read?
A: 32.6 nM

Q: What about the Ki (hCA VII) of the same compound?
A: 19.5 nM

Q: What about the Ki (hCA I) of the same compound?
A: 234 nM

Q: And the Ki (MgCA)?
A: 66600 nM

Q: What about the Ki (CgNce103) of the same compound?
A: 54.2 nM

Q: For `NS(=O)(=O)c1ccc(N2CC(=O)N(Cc3ccc(OC(F)(F)F)cc3)C2=O)cc1` [8j, 4-(2,4-Dioxo-3-(4-(trifluoromethoxy)benzyl)imidazolidin-1-yl)benzenesulfonamide], which Ki (hCA II) is on record?
A: 16.4 nM

Q: What about the Ki (hCA VII) of the same compound?
A: 22.4 nM

Q: What about the Ki (hCA I) of the same compound?
A: 425 nM

Q: What about the Ki (MgCA) of the same compound?
A: > 100000 nM

Q: What about the Ki (CgNce103) of the same compound?
A: 5.9 nM
